# Data: publication PMC12686243, “Synthesis and preclinical evaluation of FAP-targeting radiotracers for PET and optical imaging” (EJNMMI Radiopharmacy and Chemistry, 2025)
# What was measured:
# WT-HT1080 cells = experiment: fluorescence microscopy of cellular binding and uptake; format: cell-based, human; details: 1 µM, 37 °C, up to 4 h
# Protocol: WT/hFAP-HT1080 cells were seeded in an 18-chamber slide with 10,000 cells/well and cultured overnight. The medium was discarded and replaced by medium containing 1 µM of NODAGA-FAP647. The cells were then further incubated at 37 °C and 5% CO2. The binding of the ligand was stopped at the indicated time points by discarding the media and washing the cells twice with ice-cold PBS. The cells were then quickly fixed with 4% PFA/2.5% saccharose in PBS at 20 °C for 20 min. Following the fixation, cells were incubated with a 1:200 dilution of WGA-CF488A (Biotium #29022–1) in PBS to stain the cell membranes. Finally, the cell nuclei were stained with Hoechst33258 (Sigma #94403) diluted 5 µg/ml in PBS for 30 min at 20 °C. Cells were visualized with the Fluoview 1000 confocal laser scanning microscope (Olympus) using a 100 × oil immersion objective. Three representative images were captured for each well.
# [1] = biological target: T1, human recombinant dipeptidylpeptidase IV (Homo sapiens, UniProt P27487); experiment: fluorometric enzyme inhibition assay for DPPIV; format: biochemical
# T1 construct: purchased Cayman Chemical
# Protocol: The affinity towards DPPIV was determined using a commercially available inhibitor screening assay kit (Cayman Chemical, USA). The assay was performed according to the manufacturer’s instructions, and the data was analyzed as described above.
# [2] = biological target: T2, hFAPα, recombinant protein (Homo sapiens, UniProt Q12884); experiment: fluorometric enzyme inhibition assay for FAP; format: biochemical; details: Morrison equation for tight binding inhibitors; substrate Ala-Pro-AMC; mean ± SD
# T2 construct: purchased
# T2 sequence (Q12884 1-760): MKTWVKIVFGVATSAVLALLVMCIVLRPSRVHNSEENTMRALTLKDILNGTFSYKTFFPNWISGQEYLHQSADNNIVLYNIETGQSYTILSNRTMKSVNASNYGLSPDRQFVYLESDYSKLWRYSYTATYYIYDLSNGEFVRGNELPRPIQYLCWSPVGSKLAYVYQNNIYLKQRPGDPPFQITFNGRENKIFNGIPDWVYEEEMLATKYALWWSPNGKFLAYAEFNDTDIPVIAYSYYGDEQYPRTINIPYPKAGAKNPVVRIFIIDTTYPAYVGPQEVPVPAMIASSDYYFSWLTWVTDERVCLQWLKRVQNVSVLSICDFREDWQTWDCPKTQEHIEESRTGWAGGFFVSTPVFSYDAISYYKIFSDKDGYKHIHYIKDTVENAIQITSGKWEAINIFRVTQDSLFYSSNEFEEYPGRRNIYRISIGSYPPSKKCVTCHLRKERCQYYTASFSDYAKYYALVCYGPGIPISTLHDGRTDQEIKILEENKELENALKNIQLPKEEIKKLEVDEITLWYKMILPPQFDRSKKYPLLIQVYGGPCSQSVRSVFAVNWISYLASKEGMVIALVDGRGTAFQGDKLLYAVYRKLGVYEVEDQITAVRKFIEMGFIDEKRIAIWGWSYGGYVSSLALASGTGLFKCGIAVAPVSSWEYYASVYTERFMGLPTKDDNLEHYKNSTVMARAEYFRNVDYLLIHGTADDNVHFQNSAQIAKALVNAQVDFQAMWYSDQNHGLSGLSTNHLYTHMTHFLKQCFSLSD
# Protocol: Affinity towards FAP was tested using a commercially available fluorometric assay. At the day of the experiment, all tested compounds were diluted in assay buffer (DPP assay buffer, BPS Bioscience, San Diego, CA, USA,) in a 1:1 dilution series, resulting in eleven concentrations, ranging from 2000 nM to 1.950 nM, equal to 200 nM to 0.195 nM per well. The substrate Ala-Pro-AMC (BPS Bioscience, concentration per well: 5 μM, Km = 244 μM (Edosada et al. [2006])) was pipetted along with the inhibitor into a 96-well plate. Subsequently, the enzyme (hFAPα, recombinant protein) was dissolved in assay buffer and added to the wells. The final concentration of DMSO per well was 0.2%. The 96-well plate was immediately loaded into a multimode plate reader (Biotek Cytation 5, Agilent, Santa Clara, CA, USA). The fluorescence intensity for each well was measured over a time course of 30 min with measurement intervals of 15 s, an excitation wavelength of 360 ± 20 nm and an emission wavelength of 450 ± 20 nm. Data (relative fluorescence units, RFU) over the total measurement time was analyzed by linear regression. The slope of the resulting graphs was analyzed over the inhibitor concentration. The enzyme inhibition constant Ki was calculated using the Morrison equation for tight binding inhibitors (Williams and Morrison [1979]). […]
# [3] = tested on: hFAP-HT1080 and WT-HT1080 xenografts; experiment: in vivo fluorescence imaging of xenograft-bearing mice; set-up: species or system nude mice
# From the text: Female athymic NMRI-nude mice (Rj:NMRI-Foxn1nu, Janvier Labs, France or Charles River, Germany) between 8 and 20 weeks of age were used. Subsequently, the prepared cells (1.0–2.0 × 10^6 hFAP/WT-HT1080 per animal) were subcutaneously injected into the right and left thigh, respectively. Xenograft tissue for real-time binding experiments was derived from animals injected with both target-positive and negative cells, however only showing growth of one tumor entity. When approaching endpoints, mice were anesthetized and euthanized. The tumor was quickly removed, frozen in − 45 °C 2-methylbutane and stored in sealed tubes at − 80 °C.
# Optical imaging was performed using a multimodal IVIS-CT (Perkin Elmer, USA). Compounds were injected [0.09 mg/kg (n = 1)/0.33 mg/kg (n = 3) for NODAGA-FAP647; 0.17 mg/kg (n = 3) for NODAGA-FAP800, diluted in 150 µL of sterile 0.9% NaCl solution] into the lateral tail vein, either directly or via catheter. Fluorescence imaging started ~ 2 min post injection for 2–3 h, with 1 min, 3–5 min and 10 min intervals, along with a white-light image. Additional scans were performed after 24 h and, if applicable, later. The fluorescence of the respective fluorophore was captured (NODAGA-FAP647: λEx/Em = 640/680 nm, NODAGA-FAP800: λEx/Em = 745/800 nm). Emitted fluorescence intensity was analyzed (Perkin Elmer, Living Image 4.7.4) in raw data images.
# T1 sequence (P27487 whole entry): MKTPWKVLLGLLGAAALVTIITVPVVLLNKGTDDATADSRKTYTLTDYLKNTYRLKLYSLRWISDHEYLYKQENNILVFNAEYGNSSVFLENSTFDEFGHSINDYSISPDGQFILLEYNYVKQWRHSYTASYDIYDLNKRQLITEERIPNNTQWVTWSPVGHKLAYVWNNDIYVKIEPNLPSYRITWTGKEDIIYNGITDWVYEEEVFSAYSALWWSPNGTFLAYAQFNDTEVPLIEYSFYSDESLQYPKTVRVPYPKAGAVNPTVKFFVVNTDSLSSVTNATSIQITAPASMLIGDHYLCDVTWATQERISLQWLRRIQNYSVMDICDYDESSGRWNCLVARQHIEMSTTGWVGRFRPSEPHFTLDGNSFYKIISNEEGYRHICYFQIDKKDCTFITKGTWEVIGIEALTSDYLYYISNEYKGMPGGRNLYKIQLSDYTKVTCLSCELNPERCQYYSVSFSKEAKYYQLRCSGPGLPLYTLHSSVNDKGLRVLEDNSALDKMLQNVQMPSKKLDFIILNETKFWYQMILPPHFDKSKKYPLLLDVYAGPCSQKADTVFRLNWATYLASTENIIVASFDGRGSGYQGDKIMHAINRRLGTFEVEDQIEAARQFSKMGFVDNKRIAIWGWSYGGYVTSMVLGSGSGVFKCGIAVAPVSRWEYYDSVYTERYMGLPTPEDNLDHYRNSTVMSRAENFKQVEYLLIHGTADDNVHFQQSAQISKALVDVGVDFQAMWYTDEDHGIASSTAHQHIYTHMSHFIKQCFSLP
compound,measurement,setting,value
CN(CCCN1CCN(C(=O)[C@H](CCCCNC(=O)CC[C@H](C(=O)O)N2CCN(CC(=O)O)CCN(CC(=O)O)CC2)NC(=O)CCOCCOCCOCCOCCNC(=O)CCCCCC2(C)C(/C=C/C=C/C=C3/N(CCCS(=O)(=O)O)c4ccc(S(=O)(=O)O)cc4C3(C)C)=[N+](CCCS(=O)(=O)O)c3ccc(S(=O)(=O)[O-])cc32)CC1)c1ccc2nccc(C(=O)NCC(=O)N3CC(F)(F)C[C@H]3C#N)c2c1 (stereo partly drawn) [NODAGA-FAP647],binding or uptake in WT-HT1080 cells,WT-HT1080 cells,did not show any binding or uptake
same,IC50,[1],> 10 µM
same,Ki,[2],0.237 ± 0.064 nM
same,ratio hFAP-HT1080/muscle fluorescence,[3]; 120 min post injection,3.5
same,ratio hFAP/WT-HT1080 tumor fluorescence,[3]; 120 min post injection,2.5
same,fluorescence in hFAP-HT1080 tumor higher than in WT-HT1080 tumor or muscle,[3]; 24 h post injection,roughly 60%
same,reduction of fluorescence signal in hFAP-HT1080 tumor,[3]; after 24 h post injection,59%
same,WT-HT1080 to muscle ratio,[3]; over the imaging period,close to one
same,time to plateau of fluorescence in hFAP-HT1080 tumor,[3]; post injection,~ 10 min
